Results on four compounds are retold here after patent US4650801A, “Anti-cancer compositions for delivering 5-fluorouracil” (Taiho Pharmaceutical Company, Ltd., priority 1978, dated 1987).

What is called ED50 is the dose that gives a 50% effect, or the effect in half of the subjects.

One series concerns AH 130 tumor. To be noted: rat, in vivo. On the procedure: ^3H-FT- 207(300 μ Ci/Kg) with cytosine were suspended in 5% acasia solution and administered orally to AH 130 bearing rats through a stomach tube, each of 3 rats/group. […] The rat were sacrified at various periods, the tumors were removed and used for analysis. Tumor were homogenized in a equal volume of saline, 1.0 ml of each sample was suspended in 7 volumes of cold methanol and centrifuged at 3000 rpm for 10 min. The precipitate was washed twice with 2 volumes of cold methanol and the mixture was centrifuged. The supernatant was combined with first supernatant and dried under nitrogen. […] Samples were mixed with 10 ml of scintillator containing 4 g of 2,5-diphenyloxazole, 0.4 g of 1,4-bis-[2-(4-methyl-5-phenyloxazolyl)]benzene and 100 g of naphthalene per liter of solvent composed of dioxane: toluene: ethylcellosolve=15:3:2 (v/v/v), and the radio activity was measured with Aloka LSC 673 liquid scintillation spectrometor.

The conditions of series [1]: oral anti-cancer agent; cited from earlier work.
The conditions of series [2]: cited from earlier work.
The test system of a further series is sarcoma 180. The series can be described thus: Anti-cancer effect on subcutaneously transplanted sarcoma 180 in mice. It is filed as in vivo, mouse. On the procedure:
The anti-cancer compositions of this invention are tested in mice by the following methods to determine acute toxicity, anti-cancer effect and therapeutic index
Tissues of sarcoma 180, 2×10^6, are subcutaneously transplanted in the back of male mice of ICR strain (6 mice in each group). A 5-fluorouracil (a) and uracil derivative (b) in the proportions listed in Tables 1-16 are suspended in a 5% solution of gum arabic to prepare a suspension. Twenty-four hours after the transplantation and during the following seven consecutive days the suspension is orally given to the animal once every day. On the 10th day after the transplantation, the tumor is removed from the body and weighed to calculate the average weight (T) of the tumors in the group to which the composition has been given and the corresponding weight (C) in the control group to determine the ratio T/C.

Several values for one entry are separate records, joined by “and”; a condition that tells them apart may be missing. Equal entries are not always repeated. Where two headings read alike, the source gives them in different places.

As to `Nc1ccn([C@H]2C[C@H](O)[C@@H](CO)O2)c(=O)n1` [2'-Deoxycytidine], the “Concentration of 5-FU in cancer tissues” value with AH 130 tumor (60 min), in the series with AH 130 tumor (120 min), in the series on AH 130 tumor (240 min) and in the series with AH 130 tumor (480 min) was 0.000 µg/mL throughout.

As for `O=c1[nH]c(=O)n(C2CCCO2)cc1F` (stereo not drawn) [Compound 5, 1-(2-Tetrahydrofuryl)-5-fluorouracil], the “efficacy compared with 5-fluorouracil” value in series [1] is listed as “somewhat inferior to 5-fluorouracil in efficacy”. Also, in series [2], the “conversion to 5-fluorouracil in vivo” value is listed as “slowly converted to 5-fluorouracil in vivo”. Besides, the ED50 is listed as 99 mg/kg in the series on sarcoma 180 ((b) = 1(2-Tetrahydrofuryl)uracil, (b)/(a) mol ratio 1); 38 mg/kg in the series with sarcoma 180 ((b) = 1(2-Tetrahydrofuryl)uracil, (b)/(a) mol ratio 2); 34 mg/kg with sarcoma 180 ((b) = 1(2-Tetrahydrofuryl)uracil, (b)/(a) mol ratio 10); 49 mg/kg in the series with sarcoma 180 ((b) = 1Acetyluracil, (b)/(a) mol ratio 1); 31 mg/kg in the series on sarcoma 180 ((b) = 1Acetyluracil, (b)/(a) mol ratio 2); 16 mg/kg with sarcoma 180 ((b) = 1Acetyluracil, (b)/(a) mol ratio 5). Further, the ED50 in the series with sarcoma 180 ((b) = 1Cyclohexylcarbamoyluracil, (b)/(a) mol ratio 0.5) turned out to be 113 mg/kg; in the series on sarcoma 180 ((b) = 1Cyclohexylcarbamoyluracil, (b)/(a) mol ratio 2), 55 mg/kg; with sarcoma 180 ((b) = 1Cyclohexylcarbamoyluracil, (b)/(a) mol ratio 5) it was 36 mg/kg; in the series on sarcoma 180 ((b) = 1n-Hexylcarbamoyluracil, (b)/(a) mol ratio 0.5), 112 mg/kg; in the series with sarcoma 180 ((b) = 1n-Hexylcarbamoyluracil, (b)/(a) mol ratio 2) it was 52 mg/kg; with sarcoma 180 ((b) = 1n-Hexylcarbamoyluracil, (b)/(a) mol ratio 10), 43 mg/kg. The ED50 in the series with sarcoma 180 ((b) = 2'-Deoxycytidine, (b)/(a) mol ratio 1) is recorded as 102 mg/kg; with sarcoma 180 ((b) = 2'-Deoxycytidine, (b)/(a) mol ratio 2), 69 mg/kg; in the series on sarcoma 180 ((b) = 2'-Deoxycytidine, (b)/(a) mol ratio 20) it was 39 mg/kg; with sarcoma 180 ((b) = 2'-Deoxyuridine, (b)/(a) mol ratio 0.5), 82 mg/kg; in the series with sarcoma 180 ((b) = 2'-Deoxyuridine, (b)/(a) mol ratio 2), 37 mg/kg; in the series on sarcoma 180 ((b) = 2'-Deoxyuridine, (b)/(a) mol ratio 10), 28 mg/kg. Besides, the ED50 in the series on sarcoma 180 ((b) = 3Benzoyluracil, (b)/(a) mol ratio 1) was 98 mg/kg; in the series with sarcoma 180 ((b) = 3Benzoyluracil, (b)/(a) mol ratio 2), 37 mg/kg; with sarcoma 180 ((b) = 3Benzoyluracil, (b)/(a) mol ratio 10), 30 mg/kg; in the series with sarcoma 180 ((b) = 5Bromo-2'-deoxyuridine, (b)/(a) mol ratio 1) it was 54 mg/kg; in the series with sarcoma 180 ((b) = 5Bromo-2'-deoxyuridine, (b)/(a) mol ratio 2), 24 mg/kg; in the series with sarcoma 180 ((b) = 5Bromo-2'-deoxyuridine, (b)/(a) mol ratio 10), 17 mg/kg. For the same compound, the ED50 in the series with sarcoma 180 ((b) = 5Bromouracil, (b)/(a) mol ratio 1) stood at 55 mg/kg; in the series on sarcoma 180 ((b) = 5Bromouracil, (b)/(a) mol ratio 2), 26 mg/kg; with sarcoma 180 ((b) = 5Bromouracil, (b)/(a) mol ratio 10), 23 mg/kg; with sarcoma 180 ((b) = 5Iodouracil, (b)/(a) mol ratio 1), 32 mg/kg; in the series on sarcoma 180 ((b) = 5Iodouracil, (b)/(a) mol ratio 2), 17 mg/kg; in the series on sarcoma 180 ((b) = 5Iodouracil, (b)/(a) mol ratio 5), 12 mg/kg. The ED50 in the series on sarcoma 180 ((b) = Cytidine, (b)/(a) mol ratio 1) was found to be 98 mg/kg; with sarcoma 180 ((b) = Cytidine, (b)/(a) mol ratio 2), 70 mg/kg; in the series with sarcoma 180 ((b) = Cytidine, (b)/(a) mol ratio 20) it was 28 mg/kg; with sarcoma 180 ((b) = Cytosine, (b)/(a) mol ratio 1) it was 108 mg/kg; in the series on sarcoma 180 ((b) = Cytosine, (b)/(a) mol ratio 2), 66 mg/kg; with sarcoma 180 ((b) = Cytosine, (b)/(a) mol ratio 20), 27 mg/kg. Besides, the ED50 is 112 mg/kg in the series with sarcoma 180 ((b) = Orotic acid, (b)/(a) mol ratio 1); 72 mg/kg in the series with sarcoma 180 ((b) = Orotic acid, (b)/(a) mol ratio 2); 59 mg/kg in the series on sarcoma 180 ((b) = Orotic acid, (b)/(a) mol ratio 20); 94 mg/kg with sarcoma 180 ((b) = Thymidine, (b)/(a) mol ratio 2); 42 mg/kg in the series on sarcoma 180 ((b) = Thymidine, (b)/(a) mol ratio 5); 40 mg/kg in the series on sarcoma 180 ((b) = Thymidine, (b)/(a) mol ratio 10). Also, the ED50 with sarcoma 180 ((b) = Thymine, (b)/(a) mol ratio 1) came out at 42 mg/kg; with sarcoma 180 ((b) = Thymine, (b)/(a) mol ratio 2), 28 mg/kg; with sarcoma 180 ((b) = Thymine, (b)/(a) mol ratio 10), 14 mg/kg; with sarcoma 180 ((b) = Uridine, (b)/(a) mol ratio 0.5) it was 129 mg/kg; in the series with sarcoma 180 ((b) = Uridine, (b)/(a) mol ratio 2), 55 mg/kg; with sarcoma 180 ((b) = Uridine, (b)/(a) mol ratio 10), 36 mg/kg. In addition, the median effective dose (ED50) in the series on sarcoma 180 ((b)/(a) mol ratio 0 (alone), oral, 50% cancer inhibition (T/C)) is 140 mg/kg and 134 mg/kg.

In the case of `Nc1cc[nH]c(=O)n1` [Cytosine], the “Concentration of 5-FU in cancer tissues” value in the series on AH 130 tumor (60 min), in the series with AH 130 tumor (120 min), in the series with AH 130 tumor (240 min) and in the series on AH 130 tumor (480 min) was 0.000 µg/mL each time.

Consider `O=c1c(F)cn(C2CCCO2)c(=O)n1C1CCCO1` (stereo not drawn) [FD-1], for which the “Concentration of 5-FU in cancer tissues” value came out at 0.033 µg/mL with AH 130 tumor (60 min), 0.024 µg/mL in the series with AH 130 tumor (120 min), 0.011 µg/mL in the series with AH 130 tumor (240 min) and 0.008 µg/mL with AH 130 tumor (480 min).
